The results in this text go back to ChEMBL document CHEMBL1201862, “PubChem BioAssay data set” (2004).

Active and inactive are the calls of the source.

Test [1] concerns the target Serine/threonine-protein kinase PLK3 (Homo sapiens, UniProt Q9H4B4). Type of test: functional.
For test [2], the target named is RAC-gamma serine/threonine-protein kinase (Homo sapiens, UniProt Q9Y243). Type of test: functional.
Test [3] addresses Cyclin-dependent kinase 2 (Homo sapiens, UniProt P24941). Type of test: functional.
The next test has as its target Aurora kinase A (Homo sapiens, UniProt O14965). The test is classed as functional.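 Also: value from the Navigating the Kinome kinase panel profiling, panel entry STK6.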
In test [4] the target is MAP kinase-activated protein kinase 5 (Homo sapiens, UniProt Q8IW41). The test is classed as functional.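 Also: measured as one member of a kinome panel.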
In test [5] the target is Tyrosine-protein kinase JAK3 (Homo sapiens, UniProt P52333). The test is classed as functional.
A further test concerns the target LIM domain kinase 1 (Homo sapiens, UniProt P53667). Kind of test: Navigating the Kinome. Panel member name: LIMK1. Type of test: functional.
Test [6] has as its target Tyrosine-protein kinase Blk (Homo sapiens, UniProt P51451). The test is classed as functional.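 Also: obtained as one member of a kinome-wide kinase assay panel.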
For the next test, the target named is Insulin receptor (Homo sapiens, UniProt P06213). The test is classed as functional.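 Also: insulin receptor kinase tested as one member of a kinome-wide kinase panel.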
Chain of Insulin receptor (P06213 28-758 limits assumed): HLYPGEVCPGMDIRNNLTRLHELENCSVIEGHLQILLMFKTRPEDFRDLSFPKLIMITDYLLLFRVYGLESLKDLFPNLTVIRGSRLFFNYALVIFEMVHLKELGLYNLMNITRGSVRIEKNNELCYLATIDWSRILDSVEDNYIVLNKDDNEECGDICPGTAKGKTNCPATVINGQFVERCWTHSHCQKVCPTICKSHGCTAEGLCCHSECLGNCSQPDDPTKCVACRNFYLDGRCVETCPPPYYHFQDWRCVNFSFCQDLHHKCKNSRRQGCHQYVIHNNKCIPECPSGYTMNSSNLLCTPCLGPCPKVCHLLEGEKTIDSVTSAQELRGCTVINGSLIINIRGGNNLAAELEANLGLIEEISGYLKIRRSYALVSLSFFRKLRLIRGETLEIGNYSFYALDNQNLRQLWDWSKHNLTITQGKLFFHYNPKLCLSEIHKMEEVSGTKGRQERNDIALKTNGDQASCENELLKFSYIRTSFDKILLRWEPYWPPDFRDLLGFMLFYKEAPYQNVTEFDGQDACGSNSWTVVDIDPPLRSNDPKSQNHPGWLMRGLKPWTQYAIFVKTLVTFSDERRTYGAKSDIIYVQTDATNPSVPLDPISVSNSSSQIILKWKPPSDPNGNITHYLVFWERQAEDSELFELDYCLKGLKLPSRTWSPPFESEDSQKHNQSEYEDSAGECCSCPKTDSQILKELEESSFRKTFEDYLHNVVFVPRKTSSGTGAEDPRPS
Chain of Insulin receptor (P06213 763-1382 limits assumed): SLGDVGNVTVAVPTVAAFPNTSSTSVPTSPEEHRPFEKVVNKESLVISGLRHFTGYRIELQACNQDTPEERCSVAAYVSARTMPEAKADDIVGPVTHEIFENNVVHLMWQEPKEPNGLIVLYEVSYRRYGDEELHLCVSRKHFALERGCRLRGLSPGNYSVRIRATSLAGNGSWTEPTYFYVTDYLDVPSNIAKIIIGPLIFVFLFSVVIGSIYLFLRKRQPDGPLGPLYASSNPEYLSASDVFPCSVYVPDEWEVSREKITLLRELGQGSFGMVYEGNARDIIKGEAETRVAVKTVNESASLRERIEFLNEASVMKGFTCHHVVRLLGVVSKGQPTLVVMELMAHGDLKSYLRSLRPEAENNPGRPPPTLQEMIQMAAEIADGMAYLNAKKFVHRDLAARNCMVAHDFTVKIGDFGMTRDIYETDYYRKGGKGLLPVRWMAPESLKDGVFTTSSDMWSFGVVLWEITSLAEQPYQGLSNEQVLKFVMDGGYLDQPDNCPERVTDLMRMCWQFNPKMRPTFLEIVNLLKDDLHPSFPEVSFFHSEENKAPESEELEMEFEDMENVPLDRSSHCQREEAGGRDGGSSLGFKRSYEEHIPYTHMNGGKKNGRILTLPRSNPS
The target of test [7] is Protein-tyrosine kinase 2-beta (Homo sapiens, UniProt Q14289). Type of test: functional.
In test [8] the target is Glycogen synthase kinase-3 alpha (Homo sapiens, UniProt P49840). The test is classed as functional.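 Also: GSK3A result taken from a broad kinome-wide kinase panel.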
Test [9] addresses Vascular endothelial growth factor receptor 2 (Homo sapiens, UniProt P35968). Type of test: functional.
Test [10] has as its target Interleukin-1 receptor-associated kinase 1 (Homo sapiens, UniProt P51617). Type of test: functional.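 Also: IRAK1 tested as one member of a kinome panel.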
Test [11] addresses Platelet-derived growth factor receptor alpha (Homo sapiens, UniProt P16234). As to the kind of experiment: Navigating the Kinome. Panel member name: PDGFRA. Type of test: functional.
Test [12] addresses Tyrosine-protein kinase Fer (Homo sapiens, UniProt P16591). The test is classed as functional.
Test [13] addresses Cyclin-dependent kinase 1 (Homo sapiens, UniProt P06493). Type of test: functional.
Test [14] concerns the target Serine/threonine-protein kinase pim-2 (Homo sapiens, UniProt Q9P1W9). Type of test: functional.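 Also: value comes from a broad kinase panel profiling study in which PIM2 was one of the panel members.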
Test [15] addresses Cyclin-dependent kinase 7 (Homo sapiens, UniProt P50613). The test is classed as functional.
In test [16] the target is Vascular endothelial growth factor receptor 1 (Homo sapiens, UniProt P17948). The test is classed as functional.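 Also: measured within a kinome-wide profiling panel, FLT1 as the panel member.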
Test [17] concerns the target Fibroblast growth factor receptor 3 (Homo sapiens, UniProt P22607). The test is classed as functional.
Test [18] addresses Glycogen synthase kinase-3 beta (Homo sapiens, UniProt P49841). The test is classed as functional.
Test [19] concerns the target Receptor tyrosine-protein kinase erbB-4 (Homo sapiens, UniProt Q15303). Type of test: functional.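 Also: ERBB4 member of a kinome-wide kinase profiling panel.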
For test [20], the target named is Dual specificity tyrosine-phosphorylation-regulated kinase 1A (Homo sapiens, UniProt Q13627). The test is classed as functional.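 Also: measured against DYRK1A as one member of a broad kinome profiling panel.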
For test [21], the target named is Inhibitor of nuclear factor kappa-B kinase subunit epsilon (Homo sapiens, UniProt Q14164). As to the kind of experiment: Navigating the Kinome. Panel member name: IKBKE. Type of test: functional.
The target of test [22] is Tyrosine-protein kinase receptor UFO (Homo sapiens, UniProt P30530). The test is classed as functional.
The nature of test [23]: Trypanosoma cruzi growth suppression in host cells – NIH3T3 host cells, beta-gal luminescence, confirmation (AID 2044).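 Also: intracellular parasites grown in NIH/3T3 mouse fibroblasts as host cells; luminescent beta-galactosidase reporter signal from transgenic T. cruzi replicating inside host cells; inhibitors lower the luminescence signal.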 Type of test: functional, cell-based.
For another test, the target named is Caspase-8 (Homo sapiens, UniProt Q14790). Kind of test: inhibitors of purified CASP8 protease – biochemical, Z-IETD-R110 fluorescence, cherry-picked samples, selectivity assay for caspase-6 inhibitor project, dose response (AID 743294).
Chain of Caspase-8 (Q14790 217-374 limits assumed): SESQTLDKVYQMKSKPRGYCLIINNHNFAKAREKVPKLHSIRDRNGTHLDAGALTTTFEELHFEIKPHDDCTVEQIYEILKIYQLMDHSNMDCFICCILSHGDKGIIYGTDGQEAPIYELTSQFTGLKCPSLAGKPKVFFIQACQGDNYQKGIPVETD
Chain of Caspase-8 (Q14790 385-479 limits assumed): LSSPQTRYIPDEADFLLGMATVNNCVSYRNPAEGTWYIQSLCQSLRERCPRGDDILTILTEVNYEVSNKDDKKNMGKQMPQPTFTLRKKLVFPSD
For a further test, the target named is SUMO-activating enzyme (Homo sapiens, UniProt Q9UBT2). As to the kind of experiment: blockers of UBC9-mediated SUMO conjugation – biochemical, AlphaScreen, SUMOylation inhibitor project, confirmation (AID 2018). Type of test: functional.
For test [24], the target named is T1, Apoptotic protease-activating factor 1 (Homo sapiens, UniProt O14727).
T1 sequence (O14727 whole entry): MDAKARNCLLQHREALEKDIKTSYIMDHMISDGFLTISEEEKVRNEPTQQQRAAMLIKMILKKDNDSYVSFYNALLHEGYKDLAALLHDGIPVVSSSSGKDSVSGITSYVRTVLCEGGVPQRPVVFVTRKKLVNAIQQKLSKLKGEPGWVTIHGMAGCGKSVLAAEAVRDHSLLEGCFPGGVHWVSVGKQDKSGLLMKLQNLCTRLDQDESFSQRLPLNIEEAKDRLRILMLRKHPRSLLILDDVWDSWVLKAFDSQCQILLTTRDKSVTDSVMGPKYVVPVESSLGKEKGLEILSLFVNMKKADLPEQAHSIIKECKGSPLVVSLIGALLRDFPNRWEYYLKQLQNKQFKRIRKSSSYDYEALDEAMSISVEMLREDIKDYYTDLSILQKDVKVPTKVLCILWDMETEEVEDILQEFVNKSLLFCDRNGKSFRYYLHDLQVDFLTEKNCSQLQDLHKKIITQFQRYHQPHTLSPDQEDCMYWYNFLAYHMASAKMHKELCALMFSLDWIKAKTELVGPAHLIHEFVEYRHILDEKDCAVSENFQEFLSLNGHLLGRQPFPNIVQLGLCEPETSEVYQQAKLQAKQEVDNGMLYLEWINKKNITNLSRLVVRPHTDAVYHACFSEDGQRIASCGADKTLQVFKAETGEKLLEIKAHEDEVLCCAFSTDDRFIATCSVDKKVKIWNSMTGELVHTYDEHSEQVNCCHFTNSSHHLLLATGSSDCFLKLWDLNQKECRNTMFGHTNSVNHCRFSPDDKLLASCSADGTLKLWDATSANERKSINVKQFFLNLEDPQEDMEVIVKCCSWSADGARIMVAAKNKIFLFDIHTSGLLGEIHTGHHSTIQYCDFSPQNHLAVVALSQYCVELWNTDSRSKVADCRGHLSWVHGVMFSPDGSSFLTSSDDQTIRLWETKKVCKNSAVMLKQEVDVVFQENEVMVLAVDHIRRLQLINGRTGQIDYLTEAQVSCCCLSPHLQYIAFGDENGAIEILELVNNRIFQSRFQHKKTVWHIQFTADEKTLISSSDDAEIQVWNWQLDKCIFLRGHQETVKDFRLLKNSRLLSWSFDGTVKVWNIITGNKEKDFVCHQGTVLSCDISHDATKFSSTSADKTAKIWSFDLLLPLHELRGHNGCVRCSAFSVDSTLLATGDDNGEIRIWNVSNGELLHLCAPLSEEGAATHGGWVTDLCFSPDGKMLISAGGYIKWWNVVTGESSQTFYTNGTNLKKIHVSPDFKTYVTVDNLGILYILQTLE
Type of test: functional.

Chain of Serine/threonine-protein kinase pim-2 (Q9P1W9 whole entry): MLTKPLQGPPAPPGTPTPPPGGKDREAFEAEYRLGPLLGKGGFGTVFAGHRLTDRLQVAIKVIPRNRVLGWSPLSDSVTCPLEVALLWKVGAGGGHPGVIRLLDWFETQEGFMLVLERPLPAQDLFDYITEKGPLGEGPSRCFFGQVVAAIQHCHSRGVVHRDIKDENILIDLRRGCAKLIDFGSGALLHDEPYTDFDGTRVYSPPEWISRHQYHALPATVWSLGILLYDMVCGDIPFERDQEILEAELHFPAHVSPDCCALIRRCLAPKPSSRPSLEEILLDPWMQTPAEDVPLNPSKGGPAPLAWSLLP
Chain of Serine/threonine-protein kinase PLK3 (Q9H4B4 whole entry): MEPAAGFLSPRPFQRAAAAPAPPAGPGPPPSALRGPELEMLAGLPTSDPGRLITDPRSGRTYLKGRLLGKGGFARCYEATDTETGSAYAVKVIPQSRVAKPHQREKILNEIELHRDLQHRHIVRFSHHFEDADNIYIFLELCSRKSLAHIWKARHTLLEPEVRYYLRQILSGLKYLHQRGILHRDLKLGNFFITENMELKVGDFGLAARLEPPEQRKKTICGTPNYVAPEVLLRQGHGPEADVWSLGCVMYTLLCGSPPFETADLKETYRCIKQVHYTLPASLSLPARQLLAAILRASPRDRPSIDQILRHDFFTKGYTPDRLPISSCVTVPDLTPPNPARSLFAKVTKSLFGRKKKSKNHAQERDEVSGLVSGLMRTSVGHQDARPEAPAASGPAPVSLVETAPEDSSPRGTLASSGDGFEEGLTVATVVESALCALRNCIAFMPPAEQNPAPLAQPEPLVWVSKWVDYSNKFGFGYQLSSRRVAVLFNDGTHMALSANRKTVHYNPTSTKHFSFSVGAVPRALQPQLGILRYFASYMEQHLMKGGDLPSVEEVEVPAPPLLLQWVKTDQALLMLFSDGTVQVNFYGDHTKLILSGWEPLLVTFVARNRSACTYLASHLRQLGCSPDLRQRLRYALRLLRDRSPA
Chain of Fibroblast growth factor receptor 3 (P22607 whole entry): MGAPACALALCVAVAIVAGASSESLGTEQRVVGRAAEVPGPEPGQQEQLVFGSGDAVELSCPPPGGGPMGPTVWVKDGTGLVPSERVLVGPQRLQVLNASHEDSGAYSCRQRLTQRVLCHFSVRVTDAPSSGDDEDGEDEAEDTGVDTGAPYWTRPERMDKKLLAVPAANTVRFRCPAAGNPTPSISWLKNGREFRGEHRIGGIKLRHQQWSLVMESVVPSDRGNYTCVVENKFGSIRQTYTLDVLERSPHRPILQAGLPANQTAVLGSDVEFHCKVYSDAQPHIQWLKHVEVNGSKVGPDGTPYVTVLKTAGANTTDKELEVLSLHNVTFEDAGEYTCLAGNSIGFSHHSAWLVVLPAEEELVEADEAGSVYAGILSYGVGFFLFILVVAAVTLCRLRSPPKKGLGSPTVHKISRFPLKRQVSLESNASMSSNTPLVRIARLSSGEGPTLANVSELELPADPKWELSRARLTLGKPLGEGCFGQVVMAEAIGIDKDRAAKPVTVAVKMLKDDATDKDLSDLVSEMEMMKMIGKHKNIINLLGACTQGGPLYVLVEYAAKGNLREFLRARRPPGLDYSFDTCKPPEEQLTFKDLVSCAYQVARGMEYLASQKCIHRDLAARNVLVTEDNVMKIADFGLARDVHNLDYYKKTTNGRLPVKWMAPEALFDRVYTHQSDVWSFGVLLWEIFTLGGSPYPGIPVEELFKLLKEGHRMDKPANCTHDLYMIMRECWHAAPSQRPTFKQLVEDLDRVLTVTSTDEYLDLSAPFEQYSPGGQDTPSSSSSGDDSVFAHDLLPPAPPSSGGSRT
Chain of Tyrosine-protein kinase Blk (P51451 whole entry): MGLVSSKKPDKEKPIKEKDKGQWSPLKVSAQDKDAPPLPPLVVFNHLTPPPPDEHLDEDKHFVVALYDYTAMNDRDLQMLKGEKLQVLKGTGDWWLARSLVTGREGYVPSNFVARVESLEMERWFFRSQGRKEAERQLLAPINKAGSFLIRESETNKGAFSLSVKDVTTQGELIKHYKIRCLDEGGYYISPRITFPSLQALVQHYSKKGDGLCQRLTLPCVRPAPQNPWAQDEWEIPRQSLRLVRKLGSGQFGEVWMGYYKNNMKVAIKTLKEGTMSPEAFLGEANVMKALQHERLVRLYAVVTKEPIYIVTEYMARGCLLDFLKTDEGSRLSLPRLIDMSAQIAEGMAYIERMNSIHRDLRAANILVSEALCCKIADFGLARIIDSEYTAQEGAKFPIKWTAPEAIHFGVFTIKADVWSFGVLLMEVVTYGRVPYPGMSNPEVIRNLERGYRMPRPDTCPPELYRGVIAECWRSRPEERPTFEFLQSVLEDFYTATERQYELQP
Chain of LIM domain kinase 1 (P53667 whole entry, the tested form may be a part): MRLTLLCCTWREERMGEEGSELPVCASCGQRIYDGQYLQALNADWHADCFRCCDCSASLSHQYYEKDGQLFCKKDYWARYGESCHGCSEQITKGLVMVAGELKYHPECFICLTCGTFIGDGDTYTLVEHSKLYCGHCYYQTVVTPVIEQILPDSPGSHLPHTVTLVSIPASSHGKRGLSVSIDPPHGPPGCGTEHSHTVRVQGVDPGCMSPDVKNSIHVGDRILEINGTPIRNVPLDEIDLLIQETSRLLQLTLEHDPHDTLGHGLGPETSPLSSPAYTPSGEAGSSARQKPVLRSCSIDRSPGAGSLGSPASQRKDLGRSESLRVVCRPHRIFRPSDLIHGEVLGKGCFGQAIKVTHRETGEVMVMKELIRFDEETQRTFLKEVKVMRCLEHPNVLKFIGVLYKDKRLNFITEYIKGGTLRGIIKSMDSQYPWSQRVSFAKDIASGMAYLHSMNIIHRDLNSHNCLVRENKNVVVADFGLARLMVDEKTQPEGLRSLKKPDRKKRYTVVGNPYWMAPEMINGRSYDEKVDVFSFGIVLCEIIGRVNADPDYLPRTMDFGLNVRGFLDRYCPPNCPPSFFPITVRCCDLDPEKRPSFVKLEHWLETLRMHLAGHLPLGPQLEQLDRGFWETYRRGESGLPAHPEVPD
Chain of RAC-gamma serine/threonine-protein kinase (Q9Y243 whole entry): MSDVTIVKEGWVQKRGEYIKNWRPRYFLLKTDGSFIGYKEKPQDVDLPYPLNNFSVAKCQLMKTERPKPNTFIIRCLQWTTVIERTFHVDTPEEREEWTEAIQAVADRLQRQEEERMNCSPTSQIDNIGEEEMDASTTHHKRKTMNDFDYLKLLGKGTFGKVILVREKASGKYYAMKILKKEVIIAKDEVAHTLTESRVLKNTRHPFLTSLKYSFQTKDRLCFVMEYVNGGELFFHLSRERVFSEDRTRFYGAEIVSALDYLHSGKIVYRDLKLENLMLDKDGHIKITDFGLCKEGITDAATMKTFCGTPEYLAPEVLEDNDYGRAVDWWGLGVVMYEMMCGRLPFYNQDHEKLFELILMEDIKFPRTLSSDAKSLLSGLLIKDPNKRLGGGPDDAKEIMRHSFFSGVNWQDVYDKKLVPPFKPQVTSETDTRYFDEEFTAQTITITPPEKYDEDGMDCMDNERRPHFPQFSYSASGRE

What is called Ki is the equilibrium dissociation constant of an inhibitor or competing ligand from its target. In the case of `CC(N)C1CCC(C(=O)Nc2ccnc3[nH]ccc23)CC1` (centres undefined), the Ki in [1] is > 7940 nM (inactive); in test [2], 2510 nM (active); in test [3] it was 1000 nM (active); on Aurora kinase A, > 2000 nM (inactive); in test [4] it was > 1580 nM (inactive); in test [5], > 3980 nM (inactive). Moreover, the Ki at LIM domain kinase 1 was 1000 nM (active); in test [6], > 1580 nM (inactive); on Insulin receptor, > 5010 nM (inactive); in test [7], > 1580 nM (inactive); in test [8] it was > 6310 nM (inactive); in test [9], > 5010 nM (inactive). The Ki in test [10] is 7940 nM (active); in test [11], > 2510 nM (inactive); in [12], > 1580 nM (inactive); in test [13] it was 631 nM (active); in [14], > 1580 nM (inactive); in [15], 1000 nM (active). The Ki in [16] was > 2000 nM (inactive); in test [17] it was > 2000 nM (inactive); in [18], > 5010 nM (inactive); in test [19], > 3980 nM (inactive); in test [20], > 1260 nM (inactive); in [21], > 3160 nM (inactive). Further, the Ki in test [22] was > 2000 nM (inactive).
Usually EC50 stands for the concentration that produces a half-maximal response. A word on the AC50: it is the midpoint of the concentration-response curve, whichever way the signal moves. With `Cc1c(NC(=O)C(C)OC(=O)c2ccc([N+](=O)[O-])s2)c(=O)n(-c2ccccc2)n1C` (centres undefined), the EC50 in [23] was 1590 nM (active). The AC50 on Caspase-8 was 22800 nM (active).
The IC50 is the concentration needed to halve the response being measured. Regarding `COc1cc(Br)c(C(=O)c2nccc3cc(OC)c(OC)cc23)cc1OC`, the values for the IC50 (on SUMO-activating enzyme; in test [24]) were 420 nM (active) and 7370 nM (active), respectively.
